Assay results as given in patent publication US20230131966A1, “FUNGICIDAL AMIDES” (FMC Corporation, priority 2020, published 2023).

Assays:
Format in all cases: in vivo
[1] = system: Phakopsora pachyrhizi; assay: Test A: Asian soybean rust control on soybean seedlings; settings: for pest or weed control at 250 ppm: Phakopsora pachyrhizi, read-out: Test A disease control rating; for pest or weed control at 250 ppm / Test A disease control rating: soybean seedlings, 100 = 100% disease control, 0 = no control, 250 ppm
[2] = system: Puccinia recondita f. sp. tritici; assay: Test B: wheat leaf rust control on wheat seedlings; settings: for pest or weed control at 250 ppm: Puccinia recondita, read-out: Test B disease control rating; for pest or weed control at 250 ppm / Test B disease control rating: wheat seedlings, 100 = 100% disease control, 0 = no control, 250 ppm
[3] = system: Zymoseptoria tritici; assay: Test C: wheat leaf blotch control on wheat seedlings; settings: for pest or weed control at 250 ppm: Zymoseptoria tritici, read-out: Test C disease control rating; for pest or weed control at 250 ppm / Test C disease control rating: wheat seedlings, 100 = 100% disease control, 0 = no control, 250 ppm
[4] = system: Plasmopara viticola; assay: Test D: grape downy mildew control on grape seedlings; settings: for pest or weed control at 250 ppm: Plasmopara viticola, read-out: Test D disease control rating; for pest or weed control at 250 ppm / Test D disease control rating: 100 = 100% disease control, 0 = no control, 250 ppm
[5] = system: Botrytis cinerea; assay: Test E: tomato Botrytis control on tomato seedlings; settings: for pest or weed control at 250 ppm: Botrytis cinerea, read-out: Test E disease control rating; for pest or weed control at 250 ppm / Test E disease control rating: 100 = 100% disease control, 0 = no control, 250 ppm
[6] = system: Phytophthora infestans; assay: whole plant or invertebrate; settings: tomato seedlings; for pest or weed control at 250 ppm: Phytophthora infestans, in Solanum lycopersicum, read-out: Test F disease control rating, 250 ppm; for pest or weed control at 250 ppm / Test F disease control rating: 100 = 100% disease control, 0 = no control; for Test F disease control rating: 250 ppm
[7] = system: Erysiphe graminis f. sp. tritici; assay: Test G: wheat powdery mildew control on wheat seedlings; settings: for pest or weed control at 250 ppm: Blumeria graminis, read-out: Test G disease control rating; for pest or weed control at 250 ppm / Test G disease control rating: 100 = 100% disease control, 0 = no control, 250 ppm
[8] = rate 250 ppm, relative to the controls

Structure (SMILES): CCC(OC(=O)[C@H](C)NC(=O)c1nccc(OC)c1OC(C)=O)c1ccc(C2CCCCC2)cc1 (mixture of isomers) [Compound 100, N-[[3-(acetyloxy)-4-methoxy-2-pyridinyl]carbonyl]-L-alanine 1-(4-cyclohexylphenyl)propyl ester]
- pest or weed control at 250 ppm [1]: 100%
- pest or weed control at 250 ppm [2]: 99%
- pest or weed control at 250 ppm [3]: 88%
- pest or weed control at 250 ppm [4]: 32%
- pest or weed control at 250 ppm [5]: 0%
- pest or weed control at 250 ppm [6]: 0%
- pest or weed control at 250 ppm [7]: 0%

Structure (SMILES): COc1ccnc(C(=O)NC(C)C(=O)OC(C)C2CCCc3ccccc32)c1OC(C)=O (mixture of isomers) [Compound 185]
- Test A disease control rating [1]: 100%
- Test B disease control rating [2]: 100%
- Test C disease control rating [3]: 100%
- Test D disease control rating [4]: 61%
- Test E disease control rating [5]: 0%
- Test F disease control rating [6]: 0%
- Test G disease control rating [7]: 0%

Structure (SMILES): COc1ccnc2c(=O)n([C@@H](C)C(=O)OC(C)c3ccc(C4CCCCC4)cc3)c(=O)oc12 (single isomer, unassigned) [Compound 195]
- Test A disease control rating (100 = 100% disease control, 0 = no disease control) [1, 8]: 100%
- Test B disease control rating (100 = 100% disease control, 0 = no disease control) [2, 8]: 99%
- Test C disease control rating (100 = 100% disease control, 0 = no disease control) [3, 8]: 83%
- Test D disease control rating (100 = 100% disease control, 0 = no disease control) [4, 8]: 17%
- Test E disease control rating (100 = 100% disease control, 0 = no disease control) [5, 8]: 0%
- Test F disease control rating (100 = 100% disease control, 0 = no disease control) [6, 8]: 0%
- Test G disease control rating (100 = 100% disease control, 0 = no disease control) [7, 8]: 0%

Structure (SMILES): CC(NC(=O)c1cccc(NC=O)c1O)C(=O)OC(C)c1cccc(OC2CCC(C)(C)CC2)c1 (mixture of isomers) [Compound 160]
- Test A disease control rating [1]: 100%
- Test B disease control rating [2]: 92%
- Test C disease control rating [3]: 92%
- Test D disease control rating [4]: 98%
- Test E disease control rating [5]: 0%
- Test F disease control rating [6]: 80%
- Test G disease control rating [7]: 0%

Structure (SMILES): COc1ccnc(C(=O)N[C@@H](C)C(=O)OC(C)c2ccc(CC3CCCCC3)cc2)c1OC(C)=O (single isomer, unassigned) [Compound 129]
- Test A disease control rating [1]: 100%
- Test B disease control rating [2]: 100%
- Test C disease control rating [3]: 91%
- Test D disease control rating [4]: 32%
- Test E disease control rating [5]: 0%
- Test F disease control rating [6]: 0%
- Test G disease control rating [7]: 0%

Structure (SMILES): COc1ccnc(C(=O)NC(C)C(=O)OC(C)c2ccc(F)cc2Oc2ccccc2)c1OC(C)=O (mixture of isomers) [Compound 85]
- Test A disease control rating [1]: 63%
- Test B disease control rating [2]: 79%
- Test C disease control rating [3]: 67%
- Test D disease control rating [4]: 62%
- Test E disease control rating [5]: 0%
- Test F disease control rating [6]: 0%
- Test G disease control rating [7]: 0%

Structure (SMILES): COc1ccnc(C(=O)N[C@@H](C)C(=O)OC(C)c2ccc(C3CCCCC3)cc2)c1OCOC(=O)C(C)C (single isomer, unassigned) [Compound 145]
- Test A disease control rating [1]: 100%
- Test B disease control rating [2]: 99%
- Test C disease control rating [3]: 94%
- Test D disease control rating [4]: 22%
- Test E disease control rating [5]: 0%
- Test F disease control rating [6]: 0%
- Test G disease control rating [7]: 0%

Structure (SMILES): COc1ccnc(C(=O)NC(C)C(=O)OC(C)c2cc3ccccc3o2)c1O (mixture of isomers) [Compound 125]
- Test A disease control rating [1]: 99%
- Test B disease control rating [2]: 90%
- Test C disease control rating [3]: 90%
- Test D disease control rating [4]: 67%
- Test E disease control rating [5]: 0%
- Test F disease control rating [6]: 0%
- Test G disease control rating [7]: 0%

Structure (SMILES): COc1ccnc(C(=O)N[C@@H](C)C(=O)OC(C)c2ccccc2-c2ccccc2)c1O (single isomer, unassigned) [Compound 1]
- Test A disease control rating [1]: 100%
- Test B disease control rating [2]: 89%
- Test C disease control rating [3]: 81%
- Test D disease control rating [4]: 36%
- Test E disease control rating [5]: 0%
- Test F disease control rating [6]: 0%
- Test G disease control rating [7]: 0%

Structure (SMILES): CCC(OC(=O)[C@H](C)NC(=O)c1nccc(OC)c1OC(C)=O)C1CCCCC1 (mixture of isomers) [Compound 83, N-[[3-(acetyloxy)-4-methoxy-2-pyridinyl]carbonyl]-L-alanine 1-cyclohexylpropyl ester]
- pest or weed control at 250 ppm [1]: 100%
- pest or weed control at 250 ppm [2]: 100%
- pest or weed control at 250 ppm [3]: 97%
- pest or weed control at 250 ppm [4]: 27%
- pest or weed control at 250 ppm [5]: 0%
- pest or weed control at 250 ppm [6]: 0%
- pest or weed control at 250 ppm [7]: 0%

Structure (SMILES): COc1ccnc(C(=O)NC(C)C(=O)OC(C)c2cccc3ccccc23)c1O (centres unmarked) [Compound 113]
- pest or weed control at 250 ppm [1]: 90%
- Test B disease control rating [2]: 0%
- Test C disease control rating [3]: 42%
- Test D disease control rating [4]: 94%
- pest or weed control at 250 ppm [5]: 0%
- pest or weed control at 250 ppm [6]: 0%
- pest or weed control at 250 ppm [7]: 0%

Structure (SMILES): COc1ccnc(C(=O)N[C@@H](C)C(=O)OC(C)c2ccc(F)cc2Cc2ccc(F)cc2)c1OC(C)=O (single isomer, unassigned) [Compound 58]
- Test A disease control rating [1]: 98%
- Test B disease control rating [2]: 99%
- Test C disease control rating [3]: 86%
- Test D disease control rating [4]: 27%
- Test E disease control rating [5]: 0%
- Test F disease control rating [6]: 0%
- Test G disease control rating [7]: 0%

Structure (SMILES): CCC(OC(=O)C(C)NC(=O)c1nccc(OC)c1O)c1ccc(C2CCCCC2)cc1 (mixture of isomers) [Compound 72]
- Test A disease control rating [1]: 100%
- Test B disease control rating [2]: 92%
- Test C disease control rating [3]: 27%
- Test D disease control rating [4]: 62%
- Test E disease control rating [5]: 0%
- Test F disease control rating [6]: 0%
- Test G disease control rating [7]: 35%

Structure (SMILES): COc1ccnc(C(=O)NC(C)C(=O)OC(C)c2cccc3ccccc23)c1O (centres unmarked) [Compound 114]
- Test A disease control rating [1]: 100%
- Test B disease control rating [2]: 100%
- Test C disease control rating [3]: 77%
- Test D disease control rating [4]: 63%
- Test E disease control rating [5]: 0%
- Test F disease control rating [6]: 0%
- Test G disease control rating [7]: 0%
